Measured values published in ChEMBL document CHEMBL1141324, “Saponins from the roots of Nylandtia spinosa” (J Nat Prod, 2007).
Values after ≈ are worked out from the molar mass of the structure shown.

How the values were obtained:
[1] = test system: HCT-116; assay: Cytotoxicity against human HCT116 cells by MTT assay; format: functional, cell-based
[2] = test system: HT-29; assay: Cytotoxicity against human HT29 cells by MTT assay; format: functional, cell-based

| Structure (SMILES) | IC50 [1] [µg/mL] | IC50 [2] [µg/mL] |
| --- | --- | --- |
| C[C@@H]1O[C@H](OC(=O)[C@]23CCC(C)(C)CC2C2=CCC4[C@@]5(C)C[C@H](O)[C@H](O[C@@H]6O[C@H](CO)[C@@H](O)[C@H](O)[C@H]6O)[C@@](C)(C(=O)O)[C@@H]5CC[C@@]4(C)[C@]2(CO)CC3)[C@@H](O[C@H]2O[C@H](C)[C@@H](O[C@@H]3OC[C@@H](O[C@@H]4OC[C@](O)(CO)[C@H]4O)[C@H](O)[C@H]3O[C@H]3O[C@@H](CO)[C@@H](O)[C@@H](O)[C@@H]3O)[C@H](O)[C@@H]2O)[C@H](O)[C@@H]1O (stereo not given in full) | > 5 | > 5 |
| C[C@@H]1O[C@H](OC(=O)[C@]23CCC(C)(C)CC2C2=CCC4[C@@]5(C)C[C@H](O)[C@H](O[C@@H]6O[C@H](CO)[C@@H](O)[C@H](O)[C@H]6O)[C@@](C)(C(=O)O)[C@@H]5CC[C@@]4(C)[C@]2(CO)CC3)[C@@H](O[C@H]2O[C@H](C)[C@@H](O[C@@H]3OC[C@@H](O[C@@H]4O[C@H](CO)[C@H](O)[C@H](O)[C@H]4O)[C@H](O[C@@H]4OC[C@H](O)[C@H](O)[C@H]4O)[C@H]3O)[C@H](O)[C@@H]2O)[C@H](O)[C@@H]1O (stereo not given in full) | > 5 | > 5 |
| C[C@@H]1O[C@H](OC(=O)[C@]23CCC(C)(C)CC2C2=CCC4[C@@]5(C)C[C@H](O)[C@H](O[C@@H]6O[C@H](CO)[C@@H](O)[C@H](O)[C@H]6O)[C@@](C)(C(=O)O)[C@@H]5CC[C@@]4(C)[C@]2(CO)CC3)[C@@H](O[C@H]2O[C@H](C)[C@@H](O[C@@H]3OC[C@@H](O)[C@H](O[C@@H]4OC[C@](O)(CO)[C@H]4O)[C@H]3O)[C@H](O)[C@@H]2O)[C@H](O)[C@@H]1O (stereo not given in full) | > 5 | > 5 |
| C[C@@H]1O[C@H](OC(=O)[C@]23CCC(C)(C)CC2C2=CCC4[C@@]5(C)C[C@H](O)[C@H](O[C@@H]6O[C@H](CO)[C@@H](O)[C@H](O)[C@H]6O)[C@@](C)(C(=O)O)[C@@H]5CC[C@@]4(C)[C@]2(CO)CC3)[C@@H](O[C@H]2O[C@H](C)[C@@H](O[C@@H]3OC[C@@H](O[C@@H]4O[C@H](CO)[C@H](O)[C@H](O)[C@H]4O)[C@H](O[C@@H]4OC[C@H](O)[C@H](O)[C@H]4O)[C@H]3O)[C@H](O[C@@H]3OC[C@](O)(CO)[C@H]3O)[C@@H]2O)[C@H](O)[C@@H]1O (stereo not given in full) | > 5 | > 5 |
| CC(=O)O[C@H]1C(=O)[C@@]2(C)[C@H]([C@H](OC(=O)c3ccccc3)[C@]3(O)C[C@H](OC(=O)[C@H](O)[C@@H](NC(=O)c4ccccc4)c4ccccc4)C(C)=C1C3(C)C)[C@]1(OC(C)=O)CO[C@@H]1C[C@@H]2O [PACLITAXEL] | 0.008 (≈ 0.00937 µM) | 0.0053 (≈ 0.00621 µM) |
